The text below walks through data of patent US20170166981A1, “BIOMARKERS AND METHODS OF USE THEREOF” (THE TRANSLATIONAL GENOMICS RESEARCH INSTITUTE, priority 2011, published 2017).

One assay has as its system BT20 breast cancer cells. The following applies: reactivation of epigenetically silenced ERBB4; cited from earlier work.
Assay [1] deals with metastatic triple negative breast cancer (mTNBC). Nature of the assay: Clinical tumor response of metastatic/locally recurrent TNBC patients to prior and molecularly-selected therapy (TNBC personalized genomics trial). It is filed as in vivo, human. The source says:
The secondary objective is to conduct a comprehensive evaluation of genetic mutations in TNBC that may accelerate the development of rational and precise therapeutics; and to evaluate patient's best response to molecularly-selected therapy.
A patient eligible for clinical trial inclusion in this study had to meet all of the following criteria: (1) has a metastatic or locally recurrent triple negative breast cancer and is scheduled for medically indicated surgical biopsy or resection of disease; (2) have measurable or evaluable (nonmeasurable) disease based on results generated by RECIST v 1.1 (Eisenhauera, 2009) presented after surgical biopsy/resection. Following surgical resection, if the tumor sample is found to be inadequate for comprehensive molecular analysis, the patient would be deemed ineligible and would be replaced; (3) has received at least 1 prior chemotherapeutic regimen for their metastatic or locally recurrent TNBC prior to initiating the molecularly-selected therapy. There is no limit on the prior therapy for TNBC. Intervening therapies were strongly recommended to be held off if possible from the time of biopsy to the completion of sequencing so as not to change the cancer under the selective pressure of treatment, so that the sequencing results would be reflective of the current cancer; (4) is >18 years of age; (5) has an expected survival of at least 6 months, as estimated by the treating oncologist; (6) has planned surgical resection (indicated for the medical care of the patient) that will yield a minimum fresh/frozen tumor sample of 1 cm×1 cm×1 cm that will be available for molecular profiling analysis; (6) is agreeable to having a blood sample (10-20mL) drawn and analyzed to compare their normal genetic profile to that of their tumor sample; (7) has signed the most recent Patient Informed Consent Form and a Patient Authorization Form.
A patient would be excluded from this study if she meets any of the following criteria: (1) has breast cancer other than metastatic or locally recurrent TNBC; and surgical resection of the recurrent TNBC will render the patient as “no evidence of disease” (NED), and thus to be replaced; (2) has a history of heart disease, other conditions that would prevent treatment with a standard chemotherapeutic agent; (3) has evidence of CNS involvement that is progressing or that requires radiation, resection or steroid therapy; (4) has a serious uncontrolled intercurrent medical or psychiatric illness, including serious infection; (5) is pregnant or nursing; (6) is unable to comply with requirements of study.
Generally, 14 patients with previously treated triple negative breast cancer were included in the clinical study (Table 11). Samples were collected for sequencing with the SOLiD™ system (Applied Biosystems, Carlsbad, Calif.), and the patients were treated according to what is found after CLIA certification of the target.
The baseline was measured at the beginning of the treatment, after 2 cycles (close to two months), 75% regression in primary lesion were observed (FIG. 11).
Through the deep molecular profiling study described herein, a series of somatic events within individual tumors were detected that have informed or may have predicted the effectiveness of targeted therapies for some patients. Table 21 provides key information on therapeutically actionable concepts and clinical outcomes in the patient cohort used for this example.

As for `Nc1ncn([C@H]2C[C@H](O)[C@@H](CO)O2)c(=O)n1` [5-aza-2′-deoxycytidine], the apoptosis entry in the assay with BT20 breast cancer cells is given as “increased apoptosis”. With `Cn1c(=O)n(-c2ccc(C(C)(C)C#N)cc2)c2c3cc(-c4cnc5ccccc5c4)ccc3ncc21` [BEX235], in assay [1] (Patient # 1, biomarker profile guided treatment (hit only one arm of what suggested MEK/AKT)), the Best results was “Stable Disease”. In assay [1] (Patient 14), `Cn1c(=O)n(-c2ccc(C(C)(C)C#N)cc2)c2c3cc(-c4cnc5ccccc5c4)ccc3ncc21` [BEZ235] yielded a reduction in nodes of 21%. Moreover, in assay [1] (Patient # 3, biomarker profile guided treatment), the Best results is on record as “Progressive Disease”. For `C=C1C[C@@H]2CC[C@@]34C[C@H]5O[C@H]6[C@@H](O3)[C@H]3O[C@H](CC[C@@H]3O[C@H]6[C@H]5O4)CC(=O)C[C@@H]3[C@@H](OC)[C@@H](C[C@H](O)CN)O[C@H]3C[C@H]3O[C@@H](CC[C@@H]1O2)C[C@@H](C)C3=C` [Eribulin, eribulin], in assay [1] (Patient # 4, biomarker profile guided treatment), the Best results is “Stable Disease”. For the molecule `NC(=O)c1ccc(I)c([N+](=O)[O-])c1` [Iniparib], the clinical response result in assay [1] (patient mTNBC9 / TNBC-009 (DNA damage and double-strand break repair defects)) is given as “responsive”.
